Data from ChEMBL document CHEMBL1146447, “Evaluation of the antifungal activity of natural xanthones from Garcinia mangostana and their synthetic derivatives” (1997).

Tests used:
Format in all cases: functional
[1] = test system: Fusarium oxysporum f. sp. vasinfectum; assay: Antifungal activity against Fusarium oxysporum vasinfectum at 100 ppm after 144 hrs at 24 hrs intervals
Alternaria alternata [2] = assay: Antifungal activity against Alternaria tenuis at 1000 ppm after 168 hrs at 24 hrs intervals
[3] = test system: Fusarium oxysporum f. sp. vasinfectum; assay: Antifungal activity against Fusarium oxysporum vasinfectum at 1000 ppm after 144 hrs at 24 hrs intervals
[4] = test system: Fusarium oxysporum f. sp. vasinfectum; assay: Antifungal activity against Fusarium oxysporum vasinfectum at 10 ppm after 144 hrs at 24 hrs intervals
Drechslera [5] = assay: Antifungal activity against Drechslera oryzae at 1000 ppm after 168 hrs at 24 hrs intervals
Alternaria alternata [6] = assay: Antifungal activity against Alternaria tenuis at 10 ppm after 168 hrs at 24 hrs intervals
Drechslera [7] = assay: Antifungal activity against Drechslera oryzae at 10 ppm after 168 hrs at 24 hrs intervals
Alternaria alternata [8] = assay: Antifungal activity against Alternaria tenuis at 1 ppm after 168 hrs at 24 hrs intervals
[9] = test system: Fusarium oxysporum f. sp. vasinfectum; assay: Antifungal activity against Fusarium oxysporum vasinfectum at 1 ppm after 144 hrs at 24 hrs intervals
Alternaria alternata [10] = assay: Antifungal activity against Alternaria tenuis at 100 ppm after 168 hrs at 24 hrs intervals
Drechslera [11] = assay: Antifungal activity against Drechslera oryzae at 100 ppm after 168 hrs at 24 hrs intervals
Drechslera [12] = assay: Antifungal activity against Drechslera oryzae at 1 ppm after 168 hrs at 24 hrs intervals

| Compound | inhibition at 100 ppm [1] | inhibition at 1000 ppm (Alternaria alternata [2]) | inhibition at 1000 ppm [3] | inhibition at 10 ppm [4] | inhibition at 1000 ppm (Drechslera [5]) | inhibition at 10 ppm (Alternaria alternata [6]) | inhibition at 10 ppm (Drechslera [7]) | inhibition at 1 ppm (Alternaria alternata [8]) | inhibition at 1 ppm [9] | inhibition at 100 ppm (Alternaria alternata [10]) | inhibition at 100 ppm (Drechslera [11]) | inhibition at 1 ppm (Drechslera [12]) |
| --- | --- | --- | --- | --- | --- | --- | --- | --- | --- | --- | --- | --- |
| COc1c(OC(C)=O)cc2oc3cc(OC(C)=O)c(CC=C(C)C)c(O)c3c(=O)c2c1CC=C(C)C | 4% | -6% | 3% | 5% | 14% | 6% | 51% | 8% | 6% | 6% | 11% | 11% |
| CCOc1cc2oc3cc(OCC)c(OC)c(CC=C(C)C)c3c(=O)c2c(O)c1CC=C(C)C | -3% | -1% | -1% | -2% | -57% | 4% | -34% | -4% | -3% | -11% | -31% | -72% |
| C=C(C)COc1cc2oc3cc(OCC(=C)C)c(OC)c(CC=C(C)C)c3c(=O)c2c(O)c1CC=C(C)C | 3% | -1% | 9% | 2% | 17% | -2% | -1% | -8% | 1% | 4% | -1% | -1% |
| CC1(C)CCc2c(cc3oc4cc(O)c5c(c4c(=O)c3c2O)CCC(C)(C)O5)O1 [BR-XANTHONE A] | 0% | 14% | 3% | 0% | 36% | 18% | 28% | 14% | 3% | 15% | 31% | 27% |
| COc1cc2oc3cc(OC)c(OC)c(CC=C(C)C)c3c(=O)c2c(O)c1CC=C(C)C | 16% | 16% | 17% | 12% | 41% | 22% | 9% | 14% | 5% | 16% | 27% | 7% |
| COc1c(O)cc2oc3cc(O)c(CC=C(C)C)c(O)c3c(=O)c2c1CCC(C)(C)O [GARCINONE D] | 12% | 26% | 41% | 10% | 64% | 2% | 30% | -7% | -1% | -11% | 43% | 27% |
| C=CCOc1cc2oc3cc(OCC=C)c(OC)c(CC=C(C)C)c3c(=O)c2c(O)c1CC=C(C)C | 4% | 42% | 1% | 1% | -34% | -13% | -18% | -22% | 0% | 8% | -4% | -19% |
| CCCOc1cc2oc3cc(OCCC)c(OC)c(CC=C(C)C)c3c(=O)c2c(O)c1CC=C(C)C | -6% | 1% | -2% | 5% | -10% | -3% | -25% | -6% | -4% | -2% | -36% | 8% |
| CC(C)=CCc1c(O)c(CC=C(C)C)c2oc3c(O)ccc(O)c3c(=O)c2c1O [GARTANIN] | 9% | 29% | 12% | 4% | 71% | 20% | 54% | 4% | 3% | 22% | 75% | 18% |
| CCCCOc1cc2oc3cc(OCCCC)c(OC)c(CC=C(C)C)c3c(=O)c2c(O)c1CC=C(C)C | -4% | -5% | -3% | -4% | -69% | 4% | -38% | 1% | -7% | -2% | -66% | -38% |
| COc1c(OC(C)C)cc2oc3cc(OC(C)C)c(CC=C(C)C)c(O)c3c(=O)c2c1CC=C(C)C | 4% | 1% | 3% | 1% | 9% | 2% | 4% | -10% | 3% | -1% | 1% | -1% |
| S=c1c2ccccc2oc2ccccc12 | 4% | -32% | 6% | 4% | 10% | -12% | 5% | -6% | 2% | -22% | -11% | 11% |
| COc1c(O)cc2oc3cc4c(c(O)c3c(=O)c2c1CC=C(C)C)CCC(C)(C)O4 | 19% | 31% | 18% | 8% | 61% | 15% | 45% | 11% | 4% | 28% | 58% | 29% |
| COc1c(O)cc2oc3cc(O)c(CC=C(C)C)c(O)c3c(=O)c2c1CC=C(C)C [MANGOSTIN] | 29% | 41% | 24% | 22% | 53% | 38% | 51% | 17% | 11% | 39% | 54% | 55% |
| O=c1c2ccccc2oc2ccccc12 [XANTHONE] | 1% | -14% | 6% | 8% | 3% | 5% | 29% | -43% | -2% | -6% | 34% | 19% |
| CC(C)=CCc1c(O)cc2oc3cc(O)c(O)c(CC=C(C)C)c3c(=O)c2c1O | 50% | 58% | 64% | 6% | 85% | 9% | 35% | 1% | 0% | 33% | 81% | 5% |
